Data reported in patent US20030013694A1, “Use and compositions of antiprogestins for treatment of prostate diseases” (priority 2001, published 2003).

Assays:
[1] = test system: LNCaP prostate tumor cells; experiment: LNCaP human prostate cancer model in testosterone-supplemented male nude mice; format: in vivo; conditions: compared to control and castration
Method: Male nude mice (M&B) were supplemented with testosterone pellets (Innovative Research of America). LNCaP prostate cancer cells (obtainable from ATCC), obtained from cell culture and suspended in matrigel, were implanted s.c. in the inguinal region of the mice. Treatment was started when the tumors were approximately 25 mm^2 in size. Treatment was continued until progression of the tumors, Experimental groups were: 1) control (vehicle), 2) castration, 3) the antiandrogen casodex, 30 mg/kg s.c., 4) the antiprogestin mifepristone (RU-486), 10 mg/kg sec., and 5) 11β-(4-acetylphenyl)-17β-hydroxy-17α-(1,1,2,2,2-pentafluoroethyl)-estra-4,9-dien-3-one (antiprogestin (I)), 10 mg/kg sc., 5 times weekly. The tumor area was determined by caliper measurements. The Kruskal Wallis test was used for statistical analysis of intergroup differences of mean values. The tumor weight was determined at the end of the experiment.

[2] = test system: androgen-independent prostate cancer cells; conditions: in vitro and in vivo; cited from earlier work
R3327H = conditions: administered alone; R3327H prostate cancer model; cited from earlier work

## CC(O)(CS(=O)(=O)c1ccc(F)cc1)C(=O)Nc1ccc(C#N)c(C(F)(F)F)c1 (centres unmarked) [casodex]
[1]; 30 mg/kg s.c.
  tumor growth inhibition (tumor area by caliper): totally ineffective

## CC#C[C@]1(O)CC[C@H]2[C@@H]3CCC4=CC(=O)CCC4=C3[C@@H](c3ccc(N(C)C)cc3)C[C@@]21C [mifepristone]
[2]
  effect on apoptosis: effective inhibitors of apoptosis
[1]; 10 mg/kg s.c., 5 times weekly
  tumor growth inhibition (tumor area by caliper): totally ineffective
R3327H
  inhibition of tumor growth: substantial inhibition of tumor growth

## CC/C(=C(\c1ccccc1)c1ccc(OCCN(C)C)cc1)c1ccccc1 [tamoxifen]
[2]
  effect on apoptosis: effective inhibitors of apoptosis
